For this series the following is noted: Liquid; for mass density: 298.15 K, 101.33 kPa, Vibrating tube method; for Normal boiling temperature: Ebulliometric method (Recirculating still).

Molecules are shown by their SMILES. Numbers after ± are expanded uncertainties.

In general, mass density refers to mass per unit of volume. `CC(=O)O` [acetic acid]: the mass density was 1042.5 ± 0.2 kg/m3 and the Normal boiling temperature was 117.88 ± 0.2 °C.
The like results for `O` [water] were, in that order, 997.8 ± 0.2 kg/m3 and 100.00 ± 0.2 °C.

The values above are taken from the NIST ThermoML archive (doi:10.1016/j.fluid.2013.11.036).
